Reference: US20060276537A1, “Use of ladostigil for the treatment of multiple sclerosis” (priority 2005, published 2006)
Where two headings read alike, the source gives them in different places.

Legend:
Type in all cases: in vivo
[1] = test system: relapsing remitting EAE in 129/SvEv mice; test: MOG-induced relapsing remitting EAE in 129/SvEv mice
Description: This experiment is conducted to evaluate whether ladostigil tartrate is effective in alleviating EAE. EAE is induced in mice by the administration of myelin oligodendrocyte glycoprotein (MOG). Injection of MOG into 129/SvEv mice produces a relapsing remitting EAE (murine model of relapsing remitting multiple sclerosis).
One week before MOG immunization, 129/SvEv mice receive a sub-optimal dose of ladostigil tartrate or saline vehicle. Over a period of 1-2 months following MOG immunization, clinical scores are monitored by weighing animals on a daily basis and grading the severity of EAE. In addition to clinical evaluation, groups of mice are sacrificed at weekly intervals for routine histological examination (hematoxylin-eosin and luxol fast blue for evidence of inflammation and demyelination, respectively). Also, cellular infiltrates are examined for CD3 (T lymphocytes), CD56 (natural killer cells) and CD19 (B cell immunohistochemistry). Loss of neurons and oligodendrocytes is assessed using immunohistochemistry for NeuN and glutathione-S-transferase pi isoform, respectively. Furthermore, axonal integrity is examined using immunohistochemistry for β-amyloid precursor protein or neurofilament, and by Bielchowsky silver stains. The neuropathological assessments are focused on the optic nerve, lumbar/sacral cord and brain stem.

[2] = target: T1, butyrylcholinesterase (BChE) (Mus musculus, UniProt Q03311); test: Cholinesterase assay (modified Ellman, BTC substrate) in brain and blood of treated EAE mice; settings: for Brain BuChE U/g: results on the limit of assay sensitivity; for inhibition at 10.2 mg/kg / inhibition at 25.5 mg/kg / inhibition at 51 mg/kg / inhibition at 70.1 mg/kg: mouse
T1 construct: Homogenate of 100 mg brain tissue in 1 ml 100 mM phosphate buffer pH=8.0 was prepared; from tissue; host or cells: brain homogenate and blood hemolysate of ladostigil-treated EAE mice
T1 sequence (Q03311 30-603): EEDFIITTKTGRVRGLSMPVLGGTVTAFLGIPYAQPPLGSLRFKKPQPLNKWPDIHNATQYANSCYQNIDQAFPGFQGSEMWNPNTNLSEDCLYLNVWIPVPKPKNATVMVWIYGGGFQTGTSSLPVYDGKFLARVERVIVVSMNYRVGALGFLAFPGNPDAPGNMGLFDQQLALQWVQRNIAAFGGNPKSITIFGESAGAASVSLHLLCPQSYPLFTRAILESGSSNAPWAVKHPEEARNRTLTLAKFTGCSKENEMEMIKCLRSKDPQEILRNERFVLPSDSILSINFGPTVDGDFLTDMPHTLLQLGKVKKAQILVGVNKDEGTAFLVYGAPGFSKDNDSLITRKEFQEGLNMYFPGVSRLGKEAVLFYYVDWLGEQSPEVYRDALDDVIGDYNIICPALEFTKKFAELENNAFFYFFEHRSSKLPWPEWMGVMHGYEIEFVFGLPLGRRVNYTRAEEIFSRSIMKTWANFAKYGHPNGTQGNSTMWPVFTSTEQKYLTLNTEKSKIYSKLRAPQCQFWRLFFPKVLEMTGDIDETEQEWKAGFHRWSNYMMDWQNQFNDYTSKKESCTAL
Description: From the mice of Example 2, acetylcholinesterase (AChE) and butyrylcholinesterase (BChE) activities were determined by a modification of Ellman's spectophotometric method using acetyltiocholine (ATC) and butyryltiocholine (BTC) as substrates.
Homogenate of 100 mg brain tissue in 1 ml 100 mM phosphate buffer pH=8.0 was prepared. 0.4 ml of crude homogenate was added to 1.2 ml pre-warmed 4 mM 5,5′-Dithiobis(2-nitrobenzoic acid) (DTNB or Ellman's reagant); 30 μl from this mixture were added to 210 μl pre-warmed (28° C.) 50 mM phosphate buffer in a microplate; and the reaction was started by addition of 10 μl ATC or BTC (final concentration=1 mM) or water (for the blank reaction) The increase in optical density (OD) at 412 nm was monitored for 3 minutes and the slope of the straight line obtained by linear regression provided the activity in terms of ΔOD/min using SOFTMAX® software. Blank reaction was subtracted.
Conversion of ΔOD/min into Enzyme Activity was Performed as Follows: Unit enzyme/gram tissue=OD/min*0.25/10.54*4*1000/30*11
The same procedure was performed as with brain homogenate using 50 μl of ¼ hemolysate/DTNB mixture.
Enzyme activity in the blood was calculated in units/1 ml whole blood.
BuChE activity was calculated directly from the ΔOD/min of BTC.

[3] = target: T2, MAO-B (Mus musculus, UniProt Q8BW75); test: MAO assay (14C PEA substrate) in brains of treated EAE mice
T2 construct: in the brains of EAE mice; from tissue; host or cells: brain homogenate of ladostigil-treated EAE mice
T2 sequence (Q8BW75 1-520): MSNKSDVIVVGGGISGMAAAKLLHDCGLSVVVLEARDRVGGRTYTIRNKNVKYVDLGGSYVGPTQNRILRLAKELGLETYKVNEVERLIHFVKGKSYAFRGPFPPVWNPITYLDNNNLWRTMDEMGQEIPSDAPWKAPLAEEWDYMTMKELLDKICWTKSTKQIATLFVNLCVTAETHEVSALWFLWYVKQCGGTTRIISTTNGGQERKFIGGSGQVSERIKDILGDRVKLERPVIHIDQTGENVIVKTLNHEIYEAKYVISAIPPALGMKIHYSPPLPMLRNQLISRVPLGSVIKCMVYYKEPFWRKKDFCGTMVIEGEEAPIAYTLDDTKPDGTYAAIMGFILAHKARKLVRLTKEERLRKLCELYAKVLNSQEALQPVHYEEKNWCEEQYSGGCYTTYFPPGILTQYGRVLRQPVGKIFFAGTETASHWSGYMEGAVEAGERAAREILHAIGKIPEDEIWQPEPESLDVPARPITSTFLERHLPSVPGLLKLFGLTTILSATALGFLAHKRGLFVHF
Description: From the mice of Example 2, the level of MAO (MAO-A and MAO-B) inhibition was determined using ^14C-Labeled 2-phenylethylamine and 5-hydroxytryptamine as substrates.
The MAO enzyme obtained from a homogenate of rat brain in 0.3M sucrose, which was centrifuged at 600 g for 15 minutes. The supernatant is diluted appropriately in 0.05M phosphate buffer, and pre-incubated with serial dilutions of test compounds for 20 minutes at 37° C. ^14C-Labeled substrates (2-phenylethylamine, hereinafter PEA; 5-hydroxytryptamine, hereinafter 5-HT) are then added, and the incubation continued for a further 20 minutes (PEA), or 30-45 minutes (5-HT). Substrate concentrations used are 50 μM (PEA) and 1 mM (5-HT). In the case of PEA, enzyme concentration is chosen so that not more than 10% of the substrate is metabolized during the course of the reaction. Deaminated products are extracted into toluene-ethyl acetate (1:1 v/v) containing 0.6% (w/v) 2,5-diphenyloxazole (ppo) prior to determination by liquid scintillation counting. Radioactivity in the eluate indicates the production of neutral and acidic metabolites formed as a result of MAO activity. Activity of MAO in the sample is expressed as a percentage of control activity in the absence of inhibitors after subtraction of appropriate blank values. The activity determined using PEA as substrate is referred to as MAO-B, and that determined using 5-HT as MAO-A. Concentrations of inhibitor producing 50% inhibition of substrate metabolism (IC50) are calculated from the inhibition curves.

[4] = sub-optimal dose from one week before MOG immunization, vs saline vehicle

In the case of `C#CCN[C@@H]1CCc2ccc(OC(=O)N(C)CC)cc21` [Ladostigil, R(+)-6-(N-methyl,N-ethyl-carbamoyloxy)-N′-propargyl-1-aminoindan], the “incidence and severity of EAE” value ([1]; compared to control) is reported as “decreases both the incidence and severity of EAE”, the “area under the curve (clinical score)” value [1, 4] is reported as “smaller area under the curve” and the clinical score [1, 4] is reported as “lower clinical score”. For the same molecule, the BChE inhibition ([2]; 51 and 70.1 mg/kg/day, brain and blood) was 35-42%, the “Blood BuChE U/ml” value ([2]; blood of EAE mice, 10.2 mg/kg salt) was 1.52 +/− 0.24 U/ml and the “Blood BuChE U/ml” value ([2]; blood of EAE mice, 25.5 mg/kg salt) was 1.47 +/− 0.18 U/ml. For the same molecule, the “Blood BuChE U/ml” value ([2]; blood of EAE mice, 51 mg/kg salt) was 1.06 +/− 0.21 U/ml, the “Blood BuChE U/ml” value ([2]; blood of EAE mice, 70.1 mg/kg salt) was 1.01 +/− 0.18 U/ml and the “Brain BuChE U/g” value ([2]; brain of EAE mice, 10.2 mg/kg salt) was 0.35 +/− 0.04 U/g. For the same molecule, the “Brain BuChE U/g” value ([2]; brain of EAE mice, 25.5 mg/kg salt) was 0.31 +/− 0.04 U/g, the “Brain BuChE U/g” value ([2]; brain of EAE mice, 51 mg/kg salt) was 0.22 +/− 0.03 U/g and the “Brain BuChE U/g” value ([2]; brain of EAE mice, 70.1 mg/kg salt) was 0.25 +/− 0.06 U/g. The inhibition at 10.2 mg/kg ([2]; blood of EAE mice, 10.2 mg/kg salt, read-out: Blood BchE % inhibition) was 6.7%, the inhibition at 25.5 mg/kg ([2]; blood of EAE mice, 25.5 mg/kg salt, read-out: Blood BchE % inhibition) was 10.1% and the inhibition at 51 mg/kg ([2]; blood of EAE mice, 51 mg/kg salt, read-out: Blood BchE % inhibition) was 35.3%. For the same molecule, the inhibition at 70.1 mg/kg ([2]; blood of EAE mice, 70.1 mg/kg salt, read-out: Blood BchE % inhibition) was 38.4%, the inhibition at 10.2 mg/kg ([2]; brain of EAE mice, 10.2 mg/kg salt, read-out: Brain BchE % inhibition) was 7.9% and the inhibition at 25.5 mg/kg ([2]; brain of EAE mice, 25.5 mg/kg salt, read-out: Brain BchE % inhibition) was 18.4%. The inhibition at 51 mg/kg ([2]; brain of EAE mice, 51 mg/kg salt, read-out: Brain BchE % inhibition) was 42.1%, the inhibition at 70.1 mg/kg ([2]; brain of EAE mice, 70.1 mg/kg salt, read-out: Brain BchE % inhibition) was 34.2% and the “inhibition of MAO-B” value ([3]; 51 and 70.1 mg/kg/day, brain) was 81-89%. The MAO-B activity dpm ([3]; brain of EAE mice, 10.2 mg/kg) was 8784 +/− 1047 dpm, the MAO-B activity dpm ([3]; brain of EAE mice, 25.5 mg/kg) was 4258 +/− 467 dpm and the MAO-B activity dpm ([3]; brain of EAE mice, 51 mg/kg) was 2424 +/− 1122 dpm. For the same molecule, the MAO-B activity dpm ([3]; brain of EAE mice, 70.1 mg/kg) was 1382 +/− 250 dpm, the inhibition at 10.2 mg/kg ([3]; mouse, brain of EAE mice, 10.2 mg/kg) was 32% and the inhibition at 25.5 mg/kg ([3]; mouse, brain of EAE mice, 25.5 mg/kg) was 67%. The inhibition at 51 mg/kg ([3]; mouse, brain of EAE mice, 51 mg/kg) was 81% and the inhibition at 70.1 mg/kg ([3]; mouse, brain of EAE mice, 70.1 mg/kg) was 89%.
